Source: patent US6552196B2, “Quinolone carboxylic acid derivatives” (Dong Wha Pharmaceutical Industrial Co., Ltd., priority 1997, dated 2003)
Values after ≈ are worked out from the molar mass of the structure shown.

Columns and labels:
Assay in all cases: In vitro antibacterial activity (MIC), agar dilution
Type in all cases: cell-based
[1] = system: Klebsiella aerogenes 1522E; conditions: 2-fold agar dilution, Muller-Hinton agar, 18 hours at 37° C., read-out: minimum inhibitory concentration (MIC)
Method: (§1) 10^7 cfu/ml of bacteria were inoculated and cultured for 18 hours at 37° C. and then the antibacterial activities were measured. For the methicillin resistant strains the activities were measured after 48 hours of cultivation at 30° C. Hoechst Standard strains were used for the testings.

[2] = system: Staphylococcus aureus 503; conditions: 2-fold agar dilution, Muller-Hinton agar, 18 hours at 37° C., read-out: minimum inhibitory concentration (MIC)
Method: as §1

[3] = system: Pseudomonas aeruginosa 1592E; conditions: 2-fold agar dilution, Muller-Hinton agar, 18 hours at 37° C., read-out: minimum inhibitory concentration (MIC)
Method: as §1

[4] = system: Streptococcus faecium MD 8b; conditions: Enterococcus faecium, MD8B, 2-fold agar dilution, Muller-Hinton agar, 18 hours at 37° C., read-out: minimum inhibitory concentration (MIC)
Method: as §1

[5] = system: Pseudomonas aeruginosa 1771; conditions: 2-fold agar dilution, Muller-Hinton agar, 18 hours at 37° C., read-out: minimum inhibitory concentration (MIC)
Method: as §1

[6] = system: Pseudomonas aeruginosa 1771M; conditions: Pseudomonas aeruginosa, 1771M, 18 h, read-out: minimum inhibitory concentration (MIC)
Method: as §1

[7] = system: Enterobacter clocae 1321E; conditions: 2-fold agar dilution, Muller-Hinton agar, 18 hours at 37° C., read-out: minimum inhibitory concentration (MIC)
Method: as §1

[8] = system: Esherichia coli 1507E; conditions: 2-fold agar dilution, Muller-Hinton agar, 18 hours at 37° C., read-out: minimum inhibitory concentration (MIC)
Method: as §1

[9] = system: Esherichia coli 078; conditions: 2-fold agar dilution, Muller-Hinton agar, 18 hours at 37° C., read-out: minimum inhibitory concentration (MIC)
Method: as §1

[10] = system: Pseudomonas aeruginosa 9027; conditions: 2-fold agar dilution, Muller-Hinton agar, 18 hours at 37° C., read-out: minimum inhibitory concentration (MIC)
Method: as §1

[11] = system: Staphylococcus aureus 285; conditions: 2-fold agar dilution, Muller-Hinton agar, 18 hours at 37° C., read-out: minimum inhibitory concentration (MIC)
Method: as §1

[12] = system: Enterobacter clocae P99; conditions: 2-fold agar dilution, Muller-Hinton agar, 18 hours at 37° C., read-out: minimum inhibitory concentration (MIC)
Method: as §1

[13] = system: Esherichia coli TEM; conditions: 2-fold agar dilution, Muller-Hinton agar, 18 hours at 37° C., read-out: minimum inhibitory concentration (MIC)
Method: as §1

[14] = system: Streptococcus pyogens 308A; conditions: 2-fold agar dilution, Muller-Hinton agar, 18 hours at 37° C., read-out: minimum inhibitory concentration (MIC)
Method: as §1

[15] = system: Streptococcus pyogens 77A; conditions: 2-fold agar dilution, Muller-Hinton agar, 18 hours at 37° C., read-out: minimum inhibitory concentration (MIC)
Method: as §1

[16] = system: Esherichia coli DC0; conditions: 2-fold agar dilution, Muller-Hinton agar, 18 hours at 37° C., read-out: minimum inhibitory concentration (MIC)
Method: as §1

[17] = system: Salmonella typhimurium; conditions: Salmonella enterica, 2-fold agar dilution, Muller-Hinton agar, 18 hours at 37° C., read-out: minimum inhibitory concentration (MIC)
Method: as §1

[18] = system: Klebsiella oxytoca 1082E; conditions: 2-fold agar dilution, Muller-Hinton agar, 18 hours at 37° C., read-out: minimum inhibitory concentration (MIC)
Method: as §1

[19] = system: Staphylococcus aureus SG511; conditions: 2-fold agar dilution, Muller-Hinton agar, 18 hours at 37° C., read-out: minimum inhibitory concentration (MIC)
Method: as §1

Structure (SMILES)	MIC [1] [µg/mL]	MIC [2] [µg/mL]	MIC [3] [µg/mL]	MIC [4] [µg/mL]	MIC [5] [µg/mL]	MIC [6] [µg/mL]	MIC [7] [µg/mL]	MIC [8] [µg/mL]	MIC [9] [µg/mL]	MIC [10] [µg/mL]	MIC [11] [µg/mL]	MIC [12] [µg/mL]	MIC [13] [µg/mL]	MIC [14] [µg/mL]	MIC [15] [µg/mL]	MIC [16] [µg/mL]	MIC [17] [µg/mL]	MIC [18] [µg/mL]	MIC [19] [µg/mL]
CON=C1CN(c2nc3c(cc2F)c(=O)c(C(=O)O)cn3-c2ccc(F)cc2F)CC12CNC2.CS(=O)(=O)O [Example 7, 1-(2,4-Difluorophenyl)-6-fluoro-7-[8-(methoxyimino)-2,6-diazaspiro[3,4]oct-6-yl]-4-oxo-1,4-dihydro-1,8-naphthyridine-3-carboxylic acid methane sulfonate]	0.195	0.025	1.56	0.098	1.56	0.781	0.049	0.195	0.049	1.56	0.049	0.098	0.098	0.195	0.013	0.781	0.049	0.013	0.013
CON=C1CN(c2nc3c(cc2F)c(=O)c(C(=O)O)cn3C2CC2)CC12CN(C)C2 [Example 10, 1-Cyclopropyl-6-fluoro-7-[8-(methoxyimino)-2-methyl-2,6-diazaspiro[3,4]oct-6-yl]-4-oxo-1,4-dihydro-1,8-naphthyridine-3-carboxylic acid]	0.098 (≈ 0.236 µM)	0.025 (≈ 0.0602 µM)	0.781 (≈ 1.88 µM)	0.098 (≈ 0.236 µM)	0.781 (≈ 1.88 µM)	0.781 (≈ 1.88 µM)	0.025 (≈ 0.0602 µM)	0.049 (≈ 0.118 µM)	0.013 (≈ 0.0313 µM)	0.781 (≈ 1.88 µM)	0.049 (≈ 0.118 µM)	0.049 (≈ 0.118 µM)	0.049 (≈ 0.118 µM)	0.098 (≈ 0.236 µM)	0.013 (≈ 0.0313 µM)	0.391 (≈ 0.941 µM)	0.049 (≈ 0.118 µM)	0.007 (≈ 0.0169 µM)	0.013 (≈ 0.0313 µM)
